# Data published in PubChem BioAssay (NCI).
#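 96-well plates; 48 h exposure; 5 concentrations. Endpoints by linear interpolation between flanking doses. Not reached: highest tested concentration assigned. TGI denotes the concentration required for complete inhibition of growth.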
# Tests used:
# Test in all cases: NCI anticancer screen, dose series, 48 h
# [1] = system: 786-0 renal
# [2] = system: A498 renal
# [3] = system: A549 NSCLC
# [4] = system: ACHN renal
# [5] = system: CAKI-1 renal
# [6] = system: CCRF-CEM leukemia
# [7] = system: COLO 205 colon
# [8] = system: DMS 114 small cell lung
# [9] = system: DMS 273 small cell lung
# [10] = system: EKVX NSCLC
# [11] = system: HCC-2998 colon
# [12] = system: HCT-116 colon
# [13] = system: HCT-15 colon
# [14] = system: HL-60(TB) leukemia
# [15] = system: HOP-18 NSCLC
# [16] = system: HOP-62 NSCLC
# [17] = system: HOP-92 NSCLC
# [18] = system: HT29 colon
# [19] = system: IGROV1 ovarian
# [20] = system: K-562 leukemia
# [21] = system: KM20L2 colon
# [22] = system: LOX IMVI melanoma
# [23] = system: LXFL 529 NSCLC
# [24] = system: M14 melanoma
# [25] = system: M19-MEL melanoma
# [26] = system: MALME-3M melanoma
# [27] = system: MOLT-4 leukemia
# [28] = system: NCI-H23 lung
# [29] = system: NCI-H460 lung
# [30] = system: NCI-H522 lung
# [31] = system: OVCAR-4 ovarian
# [32] = system: OVCAR-5 ovarian
# [33] = system: OVCAR-8 ovarian
# [34] = system: RPMI-8226 leukemia
# [35] = system: RXF 393 renal
# [36] = system: SF-268 CNS
# [37] = system: SK-MEL-2 melanoma
# [38] = system: SK-MEL-28 melanoma
# [39] = system: SK-MEL-5 melanoma
# [40] = system: SK-OV-3 ovarian
# [41] = system: SN12C renal
# [42] = system: SNB-19 CNS
# [43] = system: SNB-75 CNS
# [44] = system: SR leukemia
# [45] = system: SW-620 colon
# [46] = system: TK-10 renal
# [47] = system: U251 CNS
# [48] = system: UACC-257 melanoma
# [49] = system: UACC-62 melanoma
# [50] = system: UO-31 renal
# [51] = system: XF 498 CNS
# [52] = system: DLD-1 colon
# [53] = system: KM12 colon
# [54] = system: NCI-H226 lung
# [55] = system: OVCAR-3 ovarian
# [56] = system: SF-295 CNS
# [57] = system: SF-539 CNS
# [58] = system: SNB-78 CNS
smiles,measurement,setting,value
COC(=O)CC1C(=O)OCc2c1cc1n(c2=O)Cc2c-1nc1ccccc1c2OC (stereo not drawn),TGI,[1],> 100 µM
same,TGI,[2],> 100 µM
same,TGI,[3],> 100 µM
same,TGI,[4],> 100 µM
same,TGI,[5],34.4 µM
same,TGI,[6],> 100 µM
same,TGI,[7],> 100 µM
same,TGI,[8],> 100 µM
same,TGI,[9],> 100 µM
same,TGI,[10],> 100 µM
same,TGI,[11],> 100 µM
same,TGI,[12],> 100 µM
same,TGI,[13],> 100 µM
same,TGI,[14],> 100 µM
same,TGI,[15],> 100 µM
same,TGI,[16],> 100 µM
same,TGI,[17],> 100 µM
same,TGI,[18],> 100 µM
same,TGI,[19],> 100 µM
same,TGI,[20],> 100 µM
same,TGI,[21],> 100 µM
same,TGI,[22],> 100 µM
same,TGI,[23],> 100 µM
same,TGI,[24],> 100 µM
same,TGI,[25],> 100 µM
same,TGI,[26],> 100 µM
same,TGI,[27],32.3 µM
same,TGI,[28],97.9 µM
same,TGI,[29],> 100 µM
same,TGI,[30],> 100 µM
same,TGI,[31],> 100 µM
same,TGI,[32],> 100 µM
same,TGI,[33],> 100 µM
same,TGI,[34],> 100 µM
same,TGI,[35],70.2 µM
same,TGI,[36],> 100 µM
same,TGI,[37],> 100 µM
same,TGI,[38],> 100 µM
same,TGI,[39],> 100 µM
same,TGI,[40],> 100 µM
same,TGI,[41],> 100 µM
same,TGI,[42],> 100 µM
same,TGI,[43],> 100 µM
same,TGI,[44],40.8 µM
same,TGI,[45],> 100 µM
same,TGI,[46],> 100 µM
same,TGI,[47],> 100 µM
same,TGI,[48],> 100 µM
same,TGI,[49],> 100 µM
same,TGI,[50],> 100 µM
same,TGI,[51],> 100 µM
COc1ccc(/C=C2/C[N+](C)(C)C/C(=C/c3ccc(OC)cc3)C2=O)cc1,TGI,[1],> 100 µM
same,TGI,[2],> 100 µM
same,TGI,[3],> 100 µM
same,TGI,[4],> 100 µM
same,TGI,[5],> 100 µM
same,TGI,[6],> 96.1 µM
same,TGI,[7],40.8 µM
same,TGI,[52],> 100 µM
same,TGI,[8],> 69.3 µM
same,TGI,[9],51.3 µM
same,TGI,[10],> 100 µM
same,TGI,[11],31 µM
same,TGI,[12],> 100 µM
same,TGI,[13],> 100 µM
same,TGI,[14],44.4 µM
same,TGI,[15],> 100 µM
same,TGI,[16],> 100 µM
same,TGI,[17],> 100 µM
same,TGI,[18],> 100 µM
same,TGI,[19],64.7 µM
same,TGI,[20],> 100 µM
same,TGI,[53],36.3 µM
same,TGI,[21],> 100 µM
same,TGI,[22],> 100 µM
same,TGI,[23],> 100 µM
same,TGI,[24],> 100 µM
same,TGI,[25],69.4 µM
same,TGI,[26],61.3 µM
same,TGI,[27],57.1 µM
same,TGI,[54],> 100 µM
same,TGI,[28],> 100 µM
same,TGI,[29],> 100 µM
same,TGI,[30],37.9 µM
same,TGI,[55],98.5 µM
same,TGI,[31],> 88.9 µM
same,TGI,[32],> 100 µM
same,TGI,[33],> 100 µM
same,TGI,[34],31.1 µM
same,TGI,[35],> 100 µM
same,TGI,[36],> 94.4 µM
same,TGI,[56],> 100 µM
same,TGI,[57],> 100 µM
same,TGI,[37],71.7 µM
same,TGI,[38],18.6 µM
same,TGI,[39],> 72 µM
same,TGI,[40],> 100 µM
same,TGI,[41],> 100 µM
same,TGI,[42],> 100 µM
same,TGI,[43],> 100 µM
same,TGI,[58],> 100 µM
same,TGI,[45],> 100 µM
same,TGI,[46],> 100 µM
same,TGI,[47],> 63.9 µM
same,TGI,[48],> 100 µM
same,TGI,[49],47.5 µM
same,TGI,[50],> 100 µM
same,TGI,[51],> 100 µM
